Data taken from the supplement of paper PMC10307832.

Experiments:
Assay in all cases: relative viability (nuclei count vs DMSO), 5 days (fraction); higher = more cells survive
[1] = compound: COc1cc2nc(N3CCCN(C)CC3)nc(NC3CCN(Cc4ccccc4)CC3)c2cc1OC + Cc1cc(Nc2cc(N3CCN(C)CC3)nc(Sc3ccc(NC(=O)C4CC4)cc3)n2)n[nH]1 [Tozasertib] (partner 0.1 µM)
Procedure, shortened: (§1)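 The day after seeding in 1536-well plates, lung cancer cell lines were treated by pin tool with a single drug, or with a fixed anchor-drug dose together with five library-drug doses (not always all listed) in √10 steps. After 5 days, a combined fix-and-stain solution (final 0.05% Triton X-100, 1% formaldehyde, 1 ug/ml Hoechst) was added. Nuclei counted on 4× images gave relative viability as treated counts over vehicle counts, reported as the median of duplicate plates.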

[2] = compound: Cc1cc([C@@H](C)Nc2ccccc2C(=O)O)c2nc(N3CCOCC3)cc(=O)n2c1 [AZD6482] + CC1(C)CCC(c2ccc(Cl)cc2)=C(CN2CCN(c3ccc(C(=O)NS(=O)(=O)c4ccc(N[C@H](CCN5CCOCC5)CSc5ccccc5)c(S(=O)(=O)C(F)(F)F)c4)cc3)CC2)C1 [Navitoclax] (partner 0.5 µM)
Procedure, shortened: as §1

[3] = compound: Cc1cc([C@@H](C)Nc2ccccc2C(=O)O)c2nc(N3CCOCC3)cc(=O)n2c1 [AZD6482] + C[C@@H](Oc1cc(-c2cnn(C3CCNCC3)c2)cnc1N)c1c(Cl)ccc(F)c1Cl [Crizotinib] (partner 1 µM)
Procedure, shortened: as §1

[4] = compound: Cc1cc([C@@H](C)Nc2ccccc2C(=O)O)c2nc(N3CCOCC3)cc(=O)n2c1 [AZD6482] + Nc1nc2[nH]cc(CCc3ccc(C(=O)N[C@@H](CCC(=O)O)C(=O)O)cc3)c2c(=O)[nH]1 [Pemetrexed] (partner 0.2 µM)
Procedure, shortened: as §1

With NCI-H1666 the relative viability ([1]; first compound 0.2 µM) was 0.569, the relative viability ([1]; first compound 0.6325 µM) was 0.727 and the relative viability ([1]; first compound 2 µM) was 0.635. It also gave a relative viability ([1]; first compound 6.325 µM) of 0.625, a relative viability ([2]; first compound 0.08 µM) of 0.794 and a relative viability ([2]; first compound 0.253 µM) of 0.846. For the same cell line, the relative viability ([2]; first compound 0.8 µM) was 0.706, the relative viability ([2]; first compound 2.53 µM) was 0.749 and the relative viability ([2]; first compound 8 µM) was 0.528. For the same cell line, the relative viability ([3]; first compound 0.08 µM) was 0.84, the relative viability ([3]; first compound 0.253 µM) was 1.11 and the relative viability ([3]; first compound 0.8 µM) was 0.823. The relative viability ([3]; first compound 2.53 µM) was 0.712, the relative viability ([3]; first compound 8 µM) was 0.989 and the relative viability ([4]; first compound 0.08 µM) was 0.902. For the same cell line, the relative viability ([4]; first compound 0.253 µM) was 0.964, the relative viability ([4]; first compound 0.8 µM) was 0.905 and the relative viability ([4]; first compound 2.53 µM) was 0.735. It also gave a relative viability ([4]; first compound 8 µM) of 0.82.
LC-2-ad gave a relative viability ([1]; first compound 0.2 µM) of 0.493, a relative viability ([1]; first compound 0.6325 µM) of 0.436 and a relative viability ([1]; first compound 2 µM) of 0.551. The relative viability ([1]; first compound 6.325 µM) was 0.47, the relative viability ([2]; first compound 0.08 µM) was 0.407 and the relative viability ([2]; first compound 0.253 µM) was 0.312. For the same cell line, the relative viability ([2]; first compound 0.8 µM) was 0.394, the relative viability ([2]; first compound 2.53 µM) was 0.234 and the relative viability ([2]; first compound 8 µM) was 0.259. The relative viability ([3]; first compound 0.08 µM) was 0.434, the relative viability ([3]; first compound 0.8 µM) was 0.476 and the relative viability ([3]; first compound 2.53 µM) was 0.404. It also gave a relative viability ([3]; first compound 8 µM) of 0.367, a relative viability ([4]; first compound 0.08 µM) of 0.279 and a relative viability ([4]; first compound 0.253 µM) of 0.293. It also gave a relative viability ([4]; first compound 0.8 µM) of 0.274, a relative viability ([4]; first compound 2.53 µM) of 0.302 and a relative viability ([4]; first compound 8 µM) of 0.292.
In the case of SK-LU-1, the relative viability ([1]; first compound 0.2 µM) is reported as 0.363, the relative viability ([1]; first compound 0.6325 µM) is reported as 0.349 and the relative viability ([1]; first compound 2 µM) is reported as 0.363. The relative viability ([1]; first compound 6.325 µM) was 0.352, the relative viability ([2]; first compound 0.253 µM) was 0.74 and the relative viability ([2]; first compound 0.8 µM) was 1.04. For the same cell line, the relative viability ([2]; first compound 2.53 µM) was 0.834, the relative viability ([2]; first compound 8 µM) was 0.93 and the relative viability ([3]; first compound 0.253 µM) was 0.908. It also gave a relative viability ([3]; first compound 0.8 µM) of 0.931, a relative viability ([3]; first compound 2.53 µM) of 0.696 and a relative viability ([3]; first compound 8 µM) of 0.886. It also gave a relative viability ([4]; first compound 0.253 µM) of 0.906, a relative viability ([4]; first compound 0.8 µM) of 1.04 and a relative viability ([4]; first compound 2.53 µM) of 0.738. The relative viability ([4]; first compound 8 µM) was 0.714.
Work on ChaGo-K-1 yielded a relative viability ([1]; first compound 0.2 µM) of 0.206, a relative viability ([1]; first compound 0.6325 µM) of 0.218 and a relative viability ([1]; first compound 2 µM) of 0.219. It also gave a relative viability ([1]; first compound 6.325 µM) of 0.244, a relative viability ([2]; first compound 0.08 µM) of 1.09 and a relative viability ([2]; first compound 0.8 µM) of 1.18. For the same cell line, the relative viability ([2]; first compound 2.53 µM) was 0.986, the relative viability ([2]; first compound 8 µM) was 1.1 and the relative viability ([3]; first compound 0.08 µM) was 1.11. For the same cell line, the relative viability ([3]; first compound 0.8 µM) was 0.744, the relative viability ([3]; first compound 2.53 µM) was 1.23 and the relative viability ([3]; first compound 8 µM) was 1.12. For the same cell line, the relative viability ([4]; first compound 0.08 µM) was 0.259, the relative viability ([4]; first compound 0.253 µM) was 0.262 and the relative viability ([4]; first compound 0.8 µM) was 0.271. The relative viability ([4]; first compound 2.53 µM) was 0.262 and the relative viability ([4]; first compound 8 µM) was 0.258.
In the case of COR-L 105, the relative viability ([1]; first compound 0.2 µM) is reported as 0.412, the relative viability ([1]; first compound 0.6325 µM) is reported as 0.429 and the relative viability ([1]; first compound 2 µM) is reported as 0.385. It also gave a relative viability ([1]; first compound 6.325 µM) of 0.353, a relative viability ([2]; first compound 0.08 µM) of 0.78 and a relative viability ([2]; first compound 0.253 µM) of 0.648. For the same cell line, the relative viability ([2]; first compound 0.8 µM) was 0.747, the relative viability ([2]; first compound 2.53 µM) was 0.521 and the relative viability ([2]; first compound 8 µM) was 0.633. It also gave a relative viability ([3]; first compound 0.08 µM) of 0.8, a relative viability ([3]; first compound 0.253 µM) of 0.742 and a relative viability ([3]; first compound 0.8 µM) of 0.742. For the same cell line, the relative viability ([3]; first compound 2.53 µM) was 0.581, the relative viability ([3]; first compound 8 µM) was 0.828 and the relative viability ([4]; first compound 0.08 µM) was 0.935. For the same cell line, the relative viability ([4]; first compound 0.253 µM) was 1.13, the relative viability ([4]; first compound 0.8 µM) was 1.26 and the relative viability ([4]; first compound 2.53 µM) was 0.761. For the same cell line, the relative viability ([4]; first compound 8 µM) was 1.21.
For NCI-H1975, the relative viability ([1]; first compound 0.2 µM) was 0.797, the relative viability ([1]; first compound 0.6325 µM) was 0.804 and the relative viability ([1]; first compound 2 µM) was 0.999. The relative viability ([1]; first compound 6.325 µM) was 0.832, the relative viability ([2]; first compound 0.08 µM) was 0.919 and the relative viability ([2]; first compound 0.253 µM) was 1.05. The relative viability ([2]; first compound 0.8 µM) was 1.17, the relative viability ([2]; first compound 2.53 µM) was 0.856 and the relative viability ([2]; first compound 8 µM) was 0.786. It also gave a relative viability ([3]; first compound 0.08 µM) of 0.841, a relative viability ([3]; first compound 0.253 µM) of 0.908 and a relative viability ([3]; first compound 0.8 µM) of 1.03. The relative viability ([3]; first compound 2.53 µM) was 0.737, the relative viability ([3]; first compound 8 µM) was 0.764 and the relative viability ([4]; first compound 0.08 µM) was 0.257. The relative viability ([4]; first compound 0.253 µM) was 0.28, the relative viability ([4]; first compound 0.8 µM) was 0.31 and the relative viability ([4]; first compound 2.53 µM) was 0.303. The relative viability ([4]; first compound 8 µM) was 0.308.
Work on NCI-H1993 yielded a relative viability ([1]; first compound 0.2 µM) of 0.583, a relative viability ([1]; first compound 0.6325 µM) of 0.622 and a relative viability ([1]; first compound 2 µM) of 0.604. For the same cell line, the relative viability ([1]; first compound 6.325 µM) was 0.625, the relative viability ([2]; first compound 0.08 µM) was 0.779 and the relative viability ([2]; first compound 0.253 µM) was 0.784. It also gave a relative viability ([2]; first compound 8 µM) of 0.654, a relative viability ([3]; first compound 0.08 µM) of 0.671 and a relative viability ([3]; first compound 0.253 µM) of 0.74. For the same cell line, the relative viability ([3]; first compound 8 µM) was 0.764, the relative viability ([4]; first compound 0.08 µM) was 0.464 and the relative viability ([4]; first compound 0.253 µM) was 0.58. For the same cell line, the relative viability ([4]; first compound 0.8 µM) was 0.48, the relative viability ([4]; first compound 2.53 µM) was 0.4 and the relative viability ([4]; first compound 8 µM) was 1.03.
RERF-LC-KJ showed a relative viability ([1]; first compound 0.2 µM) of 0.508, a relative viability ([1]; first compound 0.6325 µM) of 0.523 and a relative viability ([1]; first compound 2 µM) of 0.47. It also gave a relative viability ([1]; first compound 6.325 µM) of 0.417, a relative viability ([2]; first compound 0.08 µM) of 0.584 and a relative viability ([2]; first compound 0.253 µM) of 0.854. It also gave a relative viability ([2]; first compound 0.8 µM) of 0.802, a relative viability ([2]; first compound 2.53 µM) of 0.52 and a relative viability ([2]; first compound 8 µM) of 0.874. The relative viability ([3]; first compound 0.08 µM) was 0.745, the relative viability ([3]; first compound 0.253 µM) was 0.776 and the relative viability ([3]; first compound 0.8 µM) was 0.832. For the same cell line, the relative viability ([3]; first compound 2.53 µM) was 0.818, the relative viability ([3]; first compound 8 µM) was 0.676 and the relative viability ([4]; first compound 0.08 µM) was 0.461. For the same cell line, the relative viability ([4]; first compound 0.253 µM) was 0.459, the relative viability ([4]; first compound 0.8 µM) was 0.465 and the relative viability ([4]; first compound 2.53 µM) was 0.439. The relative viability ([4]; first compound 8 µM) was 0.449.
Work on NCI-H23 yielded a relative viability ([1]; first compound 0.2 µM) of 0.423, a relative viability ([1]; first compound 0.6325 µM) of 0.385 and a relative viability ([1]; first compound 2 µM) of 0.481. For the same cell line, the relative viability ([1]; first compound 6.325 µM) was 0.337, the relative viability ([2]; first compound 0.08 µM) was 0.828 and the relative viability ([2]; first compound 0.253 µM) was 0.696. For the same cell line, the relative viability ([2]; first compound 0.8 µM) was 0.785, the relative viability ([2]; first compound 2.53 µM) was 0.578 and the relative viability ([2]; first compound 8 µM) was 0.568. The relative viability ([3]; first compound 0.08 µM) was 0.444, the relative viability ([3]; first compound 0.253 µM) was 0.426 and the relative viability ([3]; first compound 0.8 µM) was 0.481. The relative viability ([3]; first compound 2.53 µM) was 0.369, the relative viability ([3]; first compound 8 µM) was 0.417 and the relative viability ([4]; first compound 0.08 µM) was 0.651. The relative viability ([4]; first compound 0.253 µM) was 0.484, the relative viability ([4]; first compound 0.8 µM) was 0.715 and the relative viability ([4]; first compound 2.53 µM) was 0.375. The relative viability ([4]; first compound 8 µM) was 0.43.
